Tests used:
[1] = target: T1, Adrenergic receptor alpha-1 (Rattus norvegicus, UniProt P15823+P23944+P43140); assay: Displacement of [3H]-prazosin from rat brain alpha1 adrenergic receptor after 50 mins
T1 sequence (P15823 whole entry): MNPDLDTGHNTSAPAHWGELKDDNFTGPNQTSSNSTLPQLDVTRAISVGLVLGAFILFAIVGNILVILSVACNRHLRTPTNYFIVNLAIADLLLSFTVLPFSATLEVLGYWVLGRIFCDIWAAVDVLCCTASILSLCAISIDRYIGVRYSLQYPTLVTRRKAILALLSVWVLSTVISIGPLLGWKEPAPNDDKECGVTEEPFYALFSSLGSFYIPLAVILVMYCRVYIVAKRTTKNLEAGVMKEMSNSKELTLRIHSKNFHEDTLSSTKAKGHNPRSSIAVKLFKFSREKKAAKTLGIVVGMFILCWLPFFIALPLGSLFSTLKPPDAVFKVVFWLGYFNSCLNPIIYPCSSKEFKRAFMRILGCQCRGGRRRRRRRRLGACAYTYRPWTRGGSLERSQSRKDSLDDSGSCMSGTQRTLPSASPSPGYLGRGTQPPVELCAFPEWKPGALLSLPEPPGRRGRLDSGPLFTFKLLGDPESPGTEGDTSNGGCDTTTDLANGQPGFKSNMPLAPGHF
T1 sequence (P23944 whole entry): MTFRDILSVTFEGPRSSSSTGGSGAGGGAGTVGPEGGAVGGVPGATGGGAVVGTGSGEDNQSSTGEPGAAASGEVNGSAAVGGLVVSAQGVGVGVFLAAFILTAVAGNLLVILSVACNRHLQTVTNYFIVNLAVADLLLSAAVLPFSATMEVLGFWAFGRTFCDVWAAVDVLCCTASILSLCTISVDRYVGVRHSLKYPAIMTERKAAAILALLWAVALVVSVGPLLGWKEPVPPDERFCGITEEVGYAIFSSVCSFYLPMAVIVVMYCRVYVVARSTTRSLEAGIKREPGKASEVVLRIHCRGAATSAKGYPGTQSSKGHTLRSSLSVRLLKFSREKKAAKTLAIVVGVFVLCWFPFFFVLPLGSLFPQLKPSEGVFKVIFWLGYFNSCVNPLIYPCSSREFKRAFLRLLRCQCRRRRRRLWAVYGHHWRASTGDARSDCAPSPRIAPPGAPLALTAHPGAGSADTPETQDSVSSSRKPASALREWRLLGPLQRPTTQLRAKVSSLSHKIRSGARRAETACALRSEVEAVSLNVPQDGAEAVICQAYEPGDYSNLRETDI
T1 sequence (P43140 whole entry): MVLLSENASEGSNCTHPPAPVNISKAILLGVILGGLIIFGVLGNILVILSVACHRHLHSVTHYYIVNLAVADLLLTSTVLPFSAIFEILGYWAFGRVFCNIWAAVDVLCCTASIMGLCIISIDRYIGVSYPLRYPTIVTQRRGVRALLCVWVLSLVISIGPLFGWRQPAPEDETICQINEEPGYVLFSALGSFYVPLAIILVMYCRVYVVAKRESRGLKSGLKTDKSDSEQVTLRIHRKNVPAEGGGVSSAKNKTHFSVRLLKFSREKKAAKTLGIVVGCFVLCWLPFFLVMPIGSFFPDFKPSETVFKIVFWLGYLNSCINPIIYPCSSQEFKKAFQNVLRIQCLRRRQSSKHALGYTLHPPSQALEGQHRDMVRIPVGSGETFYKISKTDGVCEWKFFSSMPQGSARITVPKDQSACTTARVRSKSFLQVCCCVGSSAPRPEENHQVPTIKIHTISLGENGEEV

[2] = target: T2, 5-hydroxytryptamine receptor 1A (Homo sapiens, UniProt P08908); assay: Displacement of [3H]8-OH-DPAT from human 5HT1A receptor transfected in HEK293-EBNA cells after 120 mins; type: cell-based
T2 sequence (P08908 whole entry): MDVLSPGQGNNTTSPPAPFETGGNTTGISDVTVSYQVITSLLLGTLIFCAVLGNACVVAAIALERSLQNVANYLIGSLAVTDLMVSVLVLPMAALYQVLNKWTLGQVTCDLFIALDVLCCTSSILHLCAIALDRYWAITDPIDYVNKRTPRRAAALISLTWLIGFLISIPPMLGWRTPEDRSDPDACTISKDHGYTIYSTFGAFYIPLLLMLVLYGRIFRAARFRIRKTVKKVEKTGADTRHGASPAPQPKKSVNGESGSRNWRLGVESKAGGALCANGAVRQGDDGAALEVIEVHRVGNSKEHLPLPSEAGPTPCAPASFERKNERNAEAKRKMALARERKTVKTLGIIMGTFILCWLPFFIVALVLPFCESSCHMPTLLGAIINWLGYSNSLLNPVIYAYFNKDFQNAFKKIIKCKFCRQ

[3] = target: T3, 5-hydroxytryptamine receptor 7 (Homo sapiens, UniProt P34969); assay: Displacement of [3H]5-CT from human 5HT7 receptor transfected in HEK293 cells after 60 mins; type: cell-based
[4] = target: T3, 5-hydroxytryptamine receptor 7; assay: Displacement of [3H]5-CT from human 5HT7 receptor transfected in HEK293 cells after 60 mins by Scatchard plot analysis; type: cell-based
[5] = Drug metabolism in rat liver S9 fraction assessed as compound remaining at 10 uM after 30 mins by RP-HPLC analysis; type: ADME, subcellular; conditions: read-out: Stability
[6] = Efflux ratio of permeability from basolateral to apical side over apical to basolateral side in human Caco2 cells at 10 to 100 uM after 30 to 120 mins; type: ADME, cell-based; conditions: Caco-2
[7] = Drug uptake in Danish Landrace pig brain at 432 +/- 102 MBq, iv administered 90 mins prior to cyclosporine A challenge measured after 30 mins by PET imaging analysis; type: ADME, organism-based, Sus scrofa; conditions: in vivo, 0.5 h
[8] = Drug uptake in Danish Landrace pig brain at 432 +/- 102 MBq, iv after 90 mins by PET imaging analysis; type: ADME, organism-based, Sus scrofa; conditions: in vivo
Sus scrofa = assay: Ratio of drug uptake in Danish Landrace pig brain at 432 +/- 102 MBq, iv in presence of cyclosporine A to drug uptake in Danish Landrace pig brain at 432 +/- 102 MBq, iv after 90 mins; conditions: in vivo
[9] = Drug metabolism in Danish Landrace pig plasma assessed as compound remaining at 432 +/- 102 MBq, iv after 5 mins; type: ADME, organism-based, Sus scrofa; conditions: read-out: Stability
[10] = Drug uptake in Danish Landrace pig brain at 52 to 300 MBq, iv administered 90 mins prior to cyclosporine A challenge measured after 30 mins by PET imaging analysis; type: ADME, organism-based, Sus scrofa; conditions: in vivo, 0.5 h
[11] = Drug uptake in Danish Landrace pig brain at 52 to 300 MBq, iv after 90 mins by PET imaging analysis; type: ADME, organism-based, Sus scrofa; conditions: in vivo

T3 sequence (P34969 whole entry): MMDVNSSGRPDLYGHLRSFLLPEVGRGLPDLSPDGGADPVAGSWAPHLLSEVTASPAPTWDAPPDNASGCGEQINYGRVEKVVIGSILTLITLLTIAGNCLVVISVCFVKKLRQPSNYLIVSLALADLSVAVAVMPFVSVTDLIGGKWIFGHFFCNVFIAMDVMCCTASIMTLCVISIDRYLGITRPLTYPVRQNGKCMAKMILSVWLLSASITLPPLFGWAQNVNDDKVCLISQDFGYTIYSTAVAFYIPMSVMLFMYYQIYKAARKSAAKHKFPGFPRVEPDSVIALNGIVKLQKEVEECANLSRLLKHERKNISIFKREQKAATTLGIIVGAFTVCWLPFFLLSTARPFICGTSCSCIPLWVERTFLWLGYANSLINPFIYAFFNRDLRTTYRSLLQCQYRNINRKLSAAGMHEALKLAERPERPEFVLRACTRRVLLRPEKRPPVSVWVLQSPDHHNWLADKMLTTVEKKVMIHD

Row | Compound | Ki [1] [µM] | Ki [2] [µM] | Ki [3] [µM] | also measured
1 | Cc1ccccc1-c1ccccc1N1CCN(CCOCCC(=O)NCc2ccc(F)nc2)CC1 | 0.365 | 0.875 | 0.0128 | 
2 | COc1ccc(-c2ccccc2N2CCN(CCCCCC(=O)NCc3ccncc3)CC2)cc1 |  |  |  | Bmax [4]: 2.7 pmol/mg; Kd [4]: 0.00117 µM; remaining at 0.5 h, 10 µM [5]: 76%; efflux ratio at up to 100 µM [6]: 3.33
3 | [11CH3]Oc1ccc(-c2ccccc2N2CCN(CCCCCC(=O)NCc3ccncc3)CC2)cc1 |  |  |  | Drug uptake [7]: Active; Drug uptake [8]: Active; Ratio (Sus scrofa): 3
4 | O=C(CCOCCN1CCN(c2ccccc2-c2ccc(F)cc2)CC1)NCc1ccc(F)nc1 | 0.0513 | 0.433 | 0.0159 | 
5 | [11CH3]Oc1ccc(-c2ccccc2N2CCN(CCOCCC(=O)NCc3ccncc3)CC2)cc1 |  |  |  | remaining at 5 min [9]: 30%; Drug uptake [10]: Active; Drug uptake [11]: Active
6 | O=C(CCCCCN1CCN(c2ncccc2-c2ccncc2)CC1)NCc1ccc(F)nc1 | 0.255 | 0.203 | 0.071 | 
7 | COc1ccc(-c2ccccc2N2CCN(CCCCCC(=O)NCc3ccc(F)nc3)CC2)cc1 | 0.0133 |  |  | 
8 | COc1ccc(CNC(=O)CCCCCN2CCN(c3cccnc3-c3ccncc3)CC2)cc1 | > 1 | 0.537 | 0.0642 | 
9 | COc1ccc(CNC(=O)CCCCCN2CCN(c3ncccc3-c3ccncc3)CC2)cc1 | 0.816 | 0.614 | 0.0261 | 
10 | O=C(CCCCCN1CCN(c2cccnc2-c2ccncc2)CC1)NCc1ccc(F)nc1 | 0.414 | 0.961 | 0.0667 | 
11 | COc1ccc(-c2ccccc2N2CCN(CCOCCC(=O)NCc3ccncc3)CC2)cc1 |  |  |  | remaining at 0.5 h, 10 µM [5]: 82%; efflux ratio at up to 100 µM [6]: 4.48
12 | COc1ccc(-c2ccccc2N2CCN(CCOCCC(=O)NCc3ccc(F)nc3)CC2)cc1 | 0.386 | 0.568 | 0.0345 | 

The next lines start with results.

Row | Ki [1] [µM] | Ki [2] [µM] | Ki [3] [µM] | Compound | also measured
13 | > 1 | 0.387 | > 1 | COc1ccccc1-c1cccc(N2CCN(CCOCCC(=O)NCc3ccc(F)nc3)CC2)c1 | 
14 | 0.156 | 0.272 | 0.0452 | COc1ccc(CNC(=O)CCOCCN2CCN(c3ccccc3-c3ccc(F)cc3)CC2)cc1 | 
15 | 0.162 | 0.743 | 0.0334 | COc1ccc(CNC(=O)CCOCCN2CCN(c3ccccc3-c3ccccc3C)CC2)cc1 | 
16 | > 1 | 0.186 | > 1 | COc1ccc(CNC(=O)CCOCCN2CCN(c3cccc(-c4ccccc4OC)c3)CC2)cc1 | 
